In data set [1] the test system is BMDC. The data set can be described thus: Antiinflammatory activity in C57BL/6 mouse BMDC assessed as inhibition of LPS-stimulated TNF-alpha production up to 50 uM preincubated for 1 hr before LPS-stimulation measured after 16 hrs by ELISA. It counts as functional.
Data set [2] deals with BMDC. The data set can be described thus: Antiinflammatory activity in C57BL/6 mouse BMDC assessed as inhibition of LPS-stimulated IL-6 production up to 50 uM preincubated for 1 hr before LPS-stimulation measured after 16 hrs by ELISA. Format: functional. For orientation: An ELISA detects its analyte on a solid surface through an enzyme-linked reagent.
In data set [3] the test system is BMDC. The data set can be described thus: Antiinflammatory activity in C57BL/6 mouse BMDC assessed as inhibition of LPS-stimulated IL-12p40 production up to 50 uM preincubated for 1 hr before LPS-stimulation measured after 16 hrs by ELISA. Format: functional.
A short description of data set [4]: Cytotoxicity against C57BL/6 mouse BMDC assessed as reduction of cell viability by MTT assay. On the technique in general: Tetrazolium assays rely on reduction of a dye to a coloured formazan, in cell work by metabolically active cells.
Data set [5] can be described thus: Antiinflammatory activity in C57BL/6 mouse BMDC assessed as inhibition of LPS-stimulated TNF-alpha production preincubated for 1 hr before LPS-stimulation measured after 16 hrs by ELISA. Format: functional.
A short description of data set [6]: Antiinflammatory activity in C57BL/6 mouse BMDC assessed as inhibition of LPS-stimulated IL-6 production preincubated for 1 hr before LPS-stimulation measured after 16 hrs by ELISA. Format: functional.
Data set [7] in a line: Antiinflammatory activity in C57BL/6 mouse BMDC assessed as inhibition of LPS-stimulated IL-12p40 production preincubated for 1 hr before LPS-stimulation measured after 16 hrs by ELISA. It counts as functional.

Activity calls are given as the source filed them. The rule behind the calls is not given here.

What is called IC50 is the concentration needed to halve the response being measured.

As for `C=C[C@@](C)(O)CC/C=C(\C)CCC=C(C)C`, the inhibition result in the data set on BMDC [1], in the data set on BMDC [2] and in the data set on BMDC [3] was “inactive” throughout.

For `CC[C@H](/C=C/[C@@H](C)[C@H]1CC[C@H]2[C@@H]3CC=C4C[C@@H](O)CC[C@]4(C)[C@H]3CC[C@]12C)C(C)C`, the inhibition entry with BMDC [1], in the data set on BMDC [2] and with BMDC [3] was “inactive” each time.

Turning to `CC[C@H](CC[C@@H](C)[C@H]1CC[C@H]2[C@@H]3CC=C4C[C@@H](O)CC[C@]4(C)[C@H]3CC[C@]12C)C(C)C`, the inhibition entry with BMDC [1], in the data set on BMDC [2] and with BMDC [3] was “inactive” in each case.

Turning to `CC[C@H](CC[C@@H](C)[C@H]1CC[C@H]2[C@@H]3CC=C4C[C@@H](O[C@@H]5O[C@H](CO)[C@@H](O)[C@H](O)[C@H]5O)CC[C@]4(C)[C@H]3CC[C@]12C)C(C)C`, the inhibition entry in the data set on BMDC [1], in the data set on BMDC [2] and with BMDC [3] was “inactive” each time.

With `C=C1CC[C@H]2C(C)(C)CCC[C@]2(C)[C@H]1C/C=C1/CC(OC)OC1=O` (some centres not stated) [CORONARIN D METHYL ETHER], the Activity entry in data set [4] is “Toxic”.

For the molecule `C=C1CC[C@H]2C(C)(C)CCC[C@]2(C)[C@H]1C/C=C1/CC(O)OC1=O` (some centres not stated) [CORONARIN D], the IC50 in data set [5] stood at 41.7 µM.

On to `C=C1CC[C@H]2C(C)(C)CCC[C@]2(C)[C@H]1CCC1=CC(OC)OC1=O` (some centres not stated) [CORONARIN G], for which the IC50 worked out at 12.6 µM in data set [5], 7.57 µM in data set [6] and 6.6 µM in data set [7].

As for `CC1(C)CCC[C@]2(C)[C@H]3C/C=C(/C=O)CC(O)CC3=CC(=O)[C@@H]12` (some centres not stated) [CORONARIN H], the 50% inhibitory concentration (IC50) in data set [5] came out at 26.8 µM; in data set [6], 8.93 µM; in data set [7], 8.02 µM.

As for `C=C1[C@@H](O)C[C@H]2C(C)(C)[C@@H](O)CC[C@]2(C)[C@H]1C/C=C1/COCC1O` (some centres not stated) [CORONARIN I], the Activity entry in data set [4] is recorded as “Toxic”.

In the case of `C=C1[C@@H](O)C[C@H]2C(C)(C)CCC[C@]2(C)[C@H]1/C=C/C1=CC(=O)OC1O` (some centres not stated) [HEDYFORRESTIN C], the concentration for half-maximal inhibition (IC50) in data set [5] was found to be 10.4 µM; in data set [6] it was 3.38 µM; in data set [7], 0.19 µM.

Turning to `C[S+]([O-])c1ccc(-c2nc(-c3ccc(F)cc3)c(-c3ccncc3)[nH]2)cc1` (configuration not stated) [SB-203580], the IC50 is 7.24 µM in data set [5], 3.53 µM in data set [6] and 5.02 µM in data set [7].

For the origin of these results see ChEMBL document CHEMBL1921746, “Chemical constituents of the rhizomes of Hedychium coronarium and their inhibitory effect on the pro-inflammatory cytokines production LPS-stimulated in bone marrow-derived dendritic cells” (Bioorg Med Chem Lett, 2011).
